The source made the active and inactive calls.
Columns and labels:
[1] = HIV-1 Env-mediated cell fusion inhibitors, dose response, CCR5-tropic Env (AID 2279); format: functional
[2] = molecular target: Eukaryotic translation initiation factor 4E (Mus musculus, UniProt P63073); assay: eIF4E–eIF4G protein interaction inhibitors, dose response, biochemical, TR-FRET (AID 855); format: functional;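 note: potency for disrupting eIF4E binding to eIF4GI seen as loss of FRET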
[3] = molecular target: Heat shock protein HSP 90-alpha (Homo sapiens, UniProt P07900); format: functional, organism-based
[4] = molecular target: T1, Calpain-2 catalytic subunit (Sus scrofa, UniProt P43367); assay: pig calpain II inhibitor potency, dose response, biochemical, fluorogenic peptide substrate (AID 1420); format: functional
T1 sequence (P43367 whole entry): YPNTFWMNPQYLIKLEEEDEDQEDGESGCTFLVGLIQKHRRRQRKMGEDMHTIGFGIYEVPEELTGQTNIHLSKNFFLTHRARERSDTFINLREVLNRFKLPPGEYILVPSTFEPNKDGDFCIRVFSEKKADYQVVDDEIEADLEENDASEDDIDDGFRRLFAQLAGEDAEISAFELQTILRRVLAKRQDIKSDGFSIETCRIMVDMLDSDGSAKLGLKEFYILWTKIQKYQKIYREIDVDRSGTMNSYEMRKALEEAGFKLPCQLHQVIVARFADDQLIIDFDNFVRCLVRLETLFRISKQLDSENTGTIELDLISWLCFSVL

[5] = molecular target: Protein-tyrosine kinase 2-beta (Homo sapiens, UniProt Q14289);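 note: potency of inhibitors of PYK2 kinase phosphorylation of poly-GT substrate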
[6] = growth suppression of PTEN-null colon cells, dose response, cell-based, HCT116 PTEN knockout (AID 1047); format: functional;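 note: HCT116 colon tumor cells with PTEN knocked out; cells exposed to compound for 60 hours before readout; potency for loss of cell viability measured by luminescence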
[7] = growth suppression of beta-catenin-knockout colon cells, dose response, cell-based, HCT116, human colon tumor (AID 1045); format: functional;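 note: HCT116 colon tumor cells with beta catenin knocked out; cells exposed to compound for 60 hours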
H4 = assay: Luminescence Cell-Based Dose Response HTS to Identify Activators of 5'UTR Stem-Loop Driven Prion Protein mRNA Translation in H4 Neuroglioblastoma Cells. [Related pubchem assays: 1829 (Project Summary), 1814 (Primary HTS)]; format: functional; details: Homo sapiens
[8] = Luminescence Cell-Based Dose Response HTS to Identify Activators of Luciferase Translation or Activity in H4 […] Cells. [Related pubchem assays: 1829 (Project Summary), 1814 (Primary HTS)]; format: functional
[9] = Luminescence Cell-Based Dose Confirmation to Identify Activators of 5'UTR Stem-Loop Driven Alpha-Synuclein mRNA Translation in H4 Neuroglioblastoma Cells. [Related pubchem assays: 1829 (Project Summary), 1814 (Primary HTS)]; format: functional
[10] = Luminescence Cell-Based Dose Response to Identify Activators of Luciferase Translation or Activity in H4-C Neuroglioblastoma Cells. [Related pubchem assays: 1829 (Project Summary), 1814 (Primary HTS)]; format: functional
[11] = Luminescence Cell-Based Dose Response to Identify Activators of 5'UTR Stem-Loop Driven Prion Protein mRNA Translation in H4-C Neuroglioblastoma Cells. [Related pubchem assays: 1829 (Project Summary), 1814 (Primary HTS)]; format: functional
Estrogen receptor = molecular target: T2, Estrogen receptor (Homo sapiens, UniProt P03372);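 note: potency for inhibiting coactivator peptide recruitment to the receptor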
T2 sequence (P03372 whole entry): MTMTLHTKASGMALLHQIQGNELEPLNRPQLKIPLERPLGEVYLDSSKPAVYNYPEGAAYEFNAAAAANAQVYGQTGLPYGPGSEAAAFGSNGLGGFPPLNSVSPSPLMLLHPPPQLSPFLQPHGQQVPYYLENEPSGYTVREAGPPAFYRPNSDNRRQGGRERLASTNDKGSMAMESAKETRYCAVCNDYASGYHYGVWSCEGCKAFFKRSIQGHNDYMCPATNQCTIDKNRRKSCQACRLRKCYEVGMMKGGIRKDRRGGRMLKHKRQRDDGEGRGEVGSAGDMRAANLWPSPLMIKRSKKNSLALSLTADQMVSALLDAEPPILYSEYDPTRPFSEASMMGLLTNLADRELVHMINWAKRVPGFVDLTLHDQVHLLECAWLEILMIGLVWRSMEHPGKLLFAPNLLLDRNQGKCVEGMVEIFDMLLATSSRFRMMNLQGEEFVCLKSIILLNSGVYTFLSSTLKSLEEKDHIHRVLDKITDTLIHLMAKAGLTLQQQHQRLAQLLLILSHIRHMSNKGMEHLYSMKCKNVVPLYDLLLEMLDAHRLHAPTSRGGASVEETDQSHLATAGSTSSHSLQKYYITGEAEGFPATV

[12] = cytotoxicity in HPDE-C7 cells, cell-based, fluorescence, HTS (AID 430); format: functional; details: Homo sapiens
[13] = molecular target: T3, Endoribonuclease toxin MazF (Escherichia coli K-12, UniProt P0AE70); assay: MazF toxin RNase activators, dose response, biochemical, fluorescence, single-stranded RNA substrate, uHTS hits (AID 588481); format: functional
T3 sequence (P0AE70 whole entry): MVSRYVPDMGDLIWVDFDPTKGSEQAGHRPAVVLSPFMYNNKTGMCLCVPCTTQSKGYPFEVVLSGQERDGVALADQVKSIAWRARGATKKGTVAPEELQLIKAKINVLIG

[14] = molecular target: T3, Endoribonuclease toxin MazF; assay: fluorescent RNA oligo signal without MazF, dose response, counter-screen for MazEF activator project, biochemical, fluorescence, single-stranded RNase substrate (AID 588502); format: functional
[15] = cytotoxicity in KRAS-transformed pancreatic duct cells, primary screen, cell-based, fluorescence, HTS (AID 431); format: functional; details: Homo sapiens;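 note: cell line used: HPDE-C7K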
Protein Rev = molecular target: T4, Protein Rev (Human immunodeficiency virus type 1 group M subtype B (isolate WMJ22)(HIV-1), UniProt P05866); assay: HIV-1 Rev-RRE RNA binding disruptors, dose response, biochemical, protein-RNA interaction (AID 842); parameters: species or system Human immunodeficiency virus 1
T4 sequence (P05866 whole entry): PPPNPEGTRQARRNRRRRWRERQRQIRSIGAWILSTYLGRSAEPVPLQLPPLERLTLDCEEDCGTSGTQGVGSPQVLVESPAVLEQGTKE

[16] = molecular target: T5, Low molecular weight phosphotyrosine protein phosphatase (Homo sapiens, UniProt P24666); format: functional; details: read-out: IC50_Mean
T5 sequence (P24666 whole entry): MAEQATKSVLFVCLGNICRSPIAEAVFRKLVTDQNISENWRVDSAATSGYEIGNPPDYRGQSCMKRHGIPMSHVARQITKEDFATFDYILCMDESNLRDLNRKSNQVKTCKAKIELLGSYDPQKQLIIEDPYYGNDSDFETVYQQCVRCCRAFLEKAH

[17] = molecular target: T5, Low molecular weight phosphotyrosine protein phosphatase; format: functional; details: read-out: IC50_Mean; remark: listed apart in the source
[18] = molecular target: T6, Carboxy-terminal domain RNA polymerase II polypeptide A small phosphatase 1 (Homo sapiens, UniProt Q9GZU7); assay: inhibitors of CTDSP1, concentration-response testing, biochemical assay, absorbance-based, actives from ultra-high-throughput screening (AID 540297); format: functional
T6 sequence (Q9GZU7 whole entry): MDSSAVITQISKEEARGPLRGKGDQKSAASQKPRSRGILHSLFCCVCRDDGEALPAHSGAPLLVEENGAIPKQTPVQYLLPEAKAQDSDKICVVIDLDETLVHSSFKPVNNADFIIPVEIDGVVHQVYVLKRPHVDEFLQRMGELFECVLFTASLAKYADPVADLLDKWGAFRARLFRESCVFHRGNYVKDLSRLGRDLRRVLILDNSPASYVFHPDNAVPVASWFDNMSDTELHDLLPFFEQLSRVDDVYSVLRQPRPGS

[19] = molecular target: DNA dC->dU-editing enzyme APOBEC-3G (Homo sapiens, UniProt Q9HC16); assay: Dose Response confirmation of small molecule APOBEC3G DNA Deaminase Inhibitors via a fluorescence-based single-stranded DNA deaminase assay. [Related pubchem assays (depositor defined):AID493012, AID493028]; format: functional
[20] = inhibitors of intracellular T. cruzi replication, confirmation, NIH3T3 host cells, beta-gal luminescence (AID 2044); format: functional, cell-based;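 note: intracellular parasites grown in NIH/3T3 mouse fibroblasts as host cells; luminescent beta-galactosidase reporter signal from transgenic T. cruzi replicating inside host cells; inhibitors lower the luminescence signal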
[21] = molecular target: T7, High affinity choline transporter 1 (Homo sapiens, UniProt Q9GZV3); assay: CHT inhibitors, dose response, cell-based, 5-point CRC, membrane potential dye (AID 504840); format: functional
T7 sequence (Q9GZV3 whole entry): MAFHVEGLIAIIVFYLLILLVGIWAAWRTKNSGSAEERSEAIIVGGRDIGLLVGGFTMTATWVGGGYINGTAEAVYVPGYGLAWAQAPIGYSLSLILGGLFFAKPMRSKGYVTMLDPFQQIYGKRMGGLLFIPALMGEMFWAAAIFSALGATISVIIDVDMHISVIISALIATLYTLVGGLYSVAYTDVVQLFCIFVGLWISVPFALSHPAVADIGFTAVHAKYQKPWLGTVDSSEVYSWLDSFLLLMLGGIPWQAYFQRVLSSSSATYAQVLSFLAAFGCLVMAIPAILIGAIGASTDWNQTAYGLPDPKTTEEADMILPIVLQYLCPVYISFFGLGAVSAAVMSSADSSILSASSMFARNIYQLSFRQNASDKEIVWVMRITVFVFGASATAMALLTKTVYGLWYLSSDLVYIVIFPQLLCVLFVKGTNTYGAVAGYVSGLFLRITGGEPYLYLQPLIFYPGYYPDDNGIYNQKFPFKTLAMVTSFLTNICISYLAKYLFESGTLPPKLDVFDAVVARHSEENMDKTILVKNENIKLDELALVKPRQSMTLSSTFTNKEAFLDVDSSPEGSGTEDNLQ

Vero = assay: host cell cytotoxicity of antiviral hits, dose response, cytotoxicity control for West Nile virus antiviral project, secondary assay (AID 1650); format: functional; details: Chlorocebus sabaeus
[22] = molecular target: Sphingosine 1-phosphate receptor 3 (Homo sapiens, UniProt Q99500); assay: Dose response cell-based high throughput screening assay for antagonists of the Sphingosine 1-Phosphate Receptor 3 (S1P3). [Related pubchem assays: 1429, 485 ]; format: functional
[23] = molecular target: 5-hydroxytryptamine receptor 1E (Homo sapiens, UniProt P28566); assay: Counterscreen assay for S1P3 antagonists: Dose response cell-based high throughput screening assay to identify antagonists of the 5-Hydroxytryptamine Receptor Subtype 1E (5HT1E). [Related pubchem assays: 1429, 485 ]; format: functional
[24] = Luminescence Cell-Based Dose Confirmation HTS to Identify Activators of 5'UTR Stem-Loop Driven Alpha-Synuclein mRNA Translation in H4 Neuroglioblastoma Cells. [Related pubchem assays: 1829 (Project Summary), 1814 (Primary HTS)]; format: functional
Ion channel NompC = Ion channel NompC (Danio rerio, UniProt Q7T1G6); assay: Fluorescence counterscreen assay for TRPML3 agonists: dose response cell-based high-throughput screening assay to identify agonists of the transient receptor potential channel N1 (TRPN1). [Related pubchem assays: 1526, 1424, 1448 ]; format: functional
Mucolipin-3 = Mucolipin-3 (Homo sapiens, UniProt Q8TDD5); assay: Dose response cell-based high-throughput screening assay for agonists of the transient receptor potential channel ML3 (TRPML3). [Related pubchem assays: 1526, 1424, 1448 ]; format: functional
[25] = HEp-2 cell cytotoxicity, dose response, cytotoxicity control for RSV inhibitor project, HTS (AID 2410); format: functional; details: human respiratory syncytial virus
[26] = inhibitors of Bluetongue virus cytopathic effect, confirmation, arbovirus, BSR cells (AID 1250); format: functional;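 note: protection from viral cytopathic effect measured as cell viability by ATP luminescence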
NS3 = NS3 (Hepatitis C virus, UniProt A3EZJ3); assay: PubChem AID 2173; parameters: species or system Hepacivirus hominis
NS3, sequence (A3EZJ3 whole entry): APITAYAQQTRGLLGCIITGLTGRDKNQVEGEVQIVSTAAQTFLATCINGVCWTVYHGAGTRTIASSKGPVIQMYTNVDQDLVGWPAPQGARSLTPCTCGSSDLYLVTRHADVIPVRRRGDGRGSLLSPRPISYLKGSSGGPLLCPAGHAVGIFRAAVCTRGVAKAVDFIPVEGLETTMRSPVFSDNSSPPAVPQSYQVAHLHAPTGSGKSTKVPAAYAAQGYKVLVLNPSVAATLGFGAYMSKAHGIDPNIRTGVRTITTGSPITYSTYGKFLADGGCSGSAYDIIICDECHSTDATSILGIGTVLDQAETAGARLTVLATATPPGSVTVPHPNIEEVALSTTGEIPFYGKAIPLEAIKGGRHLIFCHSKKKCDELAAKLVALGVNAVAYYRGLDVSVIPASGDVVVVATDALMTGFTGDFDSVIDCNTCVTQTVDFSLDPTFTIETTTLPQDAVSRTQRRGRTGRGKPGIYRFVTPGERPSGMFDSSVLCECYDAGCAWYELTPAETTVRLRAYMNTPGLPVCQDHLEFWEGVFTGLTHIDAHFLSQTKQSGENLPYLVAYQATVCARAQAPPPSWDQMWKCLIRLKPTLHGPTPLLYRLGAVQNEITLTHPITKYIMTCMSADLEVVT

Protein-tyrosine kinase 2-beta, sequence (Q14289 whole entry): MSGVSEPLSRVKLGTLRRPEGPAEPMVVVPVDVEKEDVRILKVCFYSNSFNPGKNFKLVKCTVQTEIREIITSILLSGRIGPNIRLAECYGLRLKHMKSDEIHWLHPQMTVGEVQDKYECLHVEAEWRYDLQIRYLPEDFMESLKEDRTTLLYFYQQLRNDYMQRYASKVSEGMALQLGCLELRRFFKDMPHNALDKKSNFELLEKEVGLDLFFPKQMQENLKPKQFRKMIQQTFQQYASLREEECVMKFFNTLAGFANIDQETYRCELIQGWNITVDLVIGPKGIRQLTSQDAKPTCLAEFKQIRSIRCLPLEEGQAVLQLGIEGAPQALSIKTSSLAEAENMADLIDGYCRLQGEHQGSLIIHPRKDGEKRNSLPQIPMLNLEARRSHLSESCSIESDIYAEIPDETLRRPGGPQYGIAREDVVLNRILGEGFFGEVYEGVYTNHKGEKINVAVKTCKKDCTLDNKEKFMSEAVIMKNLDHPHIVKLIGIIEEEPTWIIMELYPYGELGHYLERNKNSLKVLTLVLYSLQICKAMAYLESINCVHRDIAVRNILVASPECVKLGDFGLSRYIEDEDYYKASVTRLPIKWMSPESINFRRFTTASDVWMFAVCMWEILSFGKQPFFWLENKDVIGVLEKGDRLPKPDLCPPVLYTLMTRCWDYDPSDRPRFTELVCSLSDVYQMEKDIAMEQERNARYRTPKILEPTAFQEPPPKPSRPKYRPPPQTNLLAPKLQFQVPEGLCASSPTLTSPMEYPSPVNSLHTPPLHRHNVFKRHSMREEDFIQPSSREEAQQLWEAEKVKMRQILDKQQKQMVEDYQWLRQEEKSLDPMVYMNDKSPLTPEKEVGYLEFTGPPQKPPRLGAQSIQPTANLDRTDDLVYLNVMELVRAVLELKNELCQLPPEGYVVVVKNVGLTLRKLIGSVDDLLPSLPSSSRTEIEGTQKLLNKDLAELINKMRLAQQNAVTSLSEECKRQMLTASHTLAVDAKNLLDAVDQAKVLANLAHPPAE
5-hydroxytryptamine receptor 1E, sequence (P28566 whole entry): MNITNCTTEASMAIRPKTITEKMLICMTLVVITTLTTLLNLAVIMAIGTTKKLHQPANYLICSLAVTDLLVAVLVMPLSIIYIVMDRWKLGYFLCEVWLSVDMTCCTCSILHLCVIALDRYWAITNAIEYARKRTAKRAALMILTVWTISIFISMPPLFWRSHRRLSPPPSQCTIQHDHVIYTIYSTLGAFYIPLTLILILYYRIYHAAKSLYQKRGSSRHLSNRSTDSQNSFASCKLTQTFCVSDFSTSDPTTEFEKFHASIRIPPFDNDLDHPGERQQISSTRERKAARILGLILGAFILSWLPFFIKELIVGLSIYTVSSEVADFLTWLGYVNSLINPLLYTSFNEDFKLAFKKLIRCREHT
Sphingosine 1-phosphate receptor 3, sequence (Q99500 whole entry): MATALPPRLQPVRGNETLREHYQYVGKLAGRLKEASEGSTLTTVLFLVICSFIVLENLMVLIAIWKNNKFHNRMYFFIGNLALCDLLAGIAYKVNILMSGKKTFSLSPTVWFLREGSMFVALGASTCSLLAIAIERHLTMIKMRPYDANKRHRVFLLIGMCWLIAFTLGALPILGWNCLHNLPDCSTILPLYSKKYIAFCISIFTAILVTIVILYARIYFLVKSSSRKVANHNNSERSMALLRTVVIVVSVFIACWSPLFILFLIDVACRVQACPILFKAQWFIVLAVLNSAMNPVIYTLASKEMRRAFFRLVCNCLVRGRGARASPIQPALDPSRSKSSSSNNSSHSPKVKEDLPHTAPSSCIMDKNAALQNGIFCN
Ion channel NompC, sequence (Q7T1G6 whole entry): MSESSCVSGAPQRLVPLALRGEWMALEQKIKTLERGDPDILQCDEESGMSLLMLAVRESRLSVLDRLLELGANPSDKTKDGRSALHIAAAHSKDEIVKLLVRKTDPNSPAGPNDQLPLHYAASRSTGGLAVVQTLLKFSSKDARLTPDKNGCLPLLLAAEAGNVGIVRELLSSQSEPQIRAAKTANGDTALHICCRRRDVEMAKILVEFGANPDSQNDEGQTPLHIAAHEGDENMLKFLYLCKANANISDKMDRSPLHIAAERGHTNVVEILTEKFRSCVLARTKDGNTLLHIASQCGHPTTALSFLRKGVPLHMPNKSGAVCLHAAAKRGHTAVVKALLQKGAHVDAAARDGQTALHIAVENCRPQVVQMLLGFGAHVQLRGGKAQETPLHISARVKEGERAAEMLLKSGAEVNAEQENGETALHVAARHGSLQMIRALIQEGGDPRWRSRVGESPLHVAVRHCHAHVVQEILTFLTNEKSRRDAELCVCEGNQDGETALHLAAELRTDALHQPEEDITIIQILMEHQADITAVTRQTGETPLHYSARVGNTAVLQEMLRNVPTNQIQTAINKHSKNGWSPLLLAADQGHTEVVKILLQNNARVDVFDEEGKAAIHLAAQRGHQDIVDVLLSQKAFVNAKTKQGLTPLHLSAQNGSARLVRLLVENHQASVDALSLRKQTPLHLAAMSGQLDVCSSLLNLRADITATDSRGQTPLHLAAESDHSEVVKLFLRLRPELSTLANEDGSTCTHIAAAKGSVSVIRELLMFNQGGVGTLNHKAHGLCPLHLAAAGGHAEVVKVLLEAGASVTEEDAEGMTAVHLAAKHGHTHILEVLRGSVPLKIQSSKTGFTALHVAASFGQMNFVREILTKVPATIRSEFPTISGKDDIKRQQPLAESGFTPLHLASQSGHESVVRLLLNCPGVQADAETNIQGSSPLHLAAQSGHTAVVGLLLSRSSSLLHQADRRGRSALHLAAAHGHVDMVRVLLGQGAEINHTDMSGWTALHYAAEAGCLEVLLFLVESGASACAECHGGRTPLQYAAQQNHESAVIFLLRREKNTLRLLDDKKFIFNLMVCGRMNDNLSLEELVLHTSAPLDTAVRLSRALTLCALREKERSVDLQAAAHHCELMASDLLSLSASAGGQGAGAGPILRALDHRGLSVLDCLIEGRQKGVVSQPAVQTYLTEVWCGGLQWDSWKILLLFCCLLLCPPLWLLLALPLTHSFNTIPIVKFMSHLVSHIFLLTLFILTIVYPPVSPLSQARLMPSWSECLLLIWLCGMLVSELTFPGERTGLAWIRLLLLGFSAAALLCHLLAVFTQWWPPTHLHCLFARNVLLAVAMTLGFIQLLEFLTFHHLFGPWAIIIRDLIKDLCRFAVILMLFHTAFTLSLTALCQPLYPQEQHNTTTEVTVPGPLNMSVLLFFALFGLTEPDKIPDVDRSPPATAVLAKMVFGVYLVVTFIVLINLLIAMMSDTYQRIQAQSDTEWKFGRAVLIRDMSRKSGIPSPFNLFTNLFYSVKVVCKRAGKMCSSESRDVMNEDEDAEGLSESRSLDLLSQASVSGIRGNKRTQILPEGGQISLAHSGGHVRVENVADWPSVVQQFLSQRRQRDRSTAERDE
Eukaryotic translation initiation factor 4E, sequence (P63073 whole entry): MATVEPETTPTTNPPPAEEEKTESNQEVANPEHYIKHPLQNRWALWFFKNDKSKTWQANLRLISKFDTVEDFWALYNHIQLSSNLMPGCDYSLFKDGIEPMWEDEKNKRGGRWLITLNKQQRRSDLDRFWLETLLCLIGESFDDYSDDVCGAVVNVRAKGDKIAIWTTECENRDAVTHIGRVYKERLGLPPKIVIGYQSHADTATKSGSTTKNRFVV
DNA dC->dU-editing enzyme APOBEC-3G, sequence (Q9HC16 whole entry): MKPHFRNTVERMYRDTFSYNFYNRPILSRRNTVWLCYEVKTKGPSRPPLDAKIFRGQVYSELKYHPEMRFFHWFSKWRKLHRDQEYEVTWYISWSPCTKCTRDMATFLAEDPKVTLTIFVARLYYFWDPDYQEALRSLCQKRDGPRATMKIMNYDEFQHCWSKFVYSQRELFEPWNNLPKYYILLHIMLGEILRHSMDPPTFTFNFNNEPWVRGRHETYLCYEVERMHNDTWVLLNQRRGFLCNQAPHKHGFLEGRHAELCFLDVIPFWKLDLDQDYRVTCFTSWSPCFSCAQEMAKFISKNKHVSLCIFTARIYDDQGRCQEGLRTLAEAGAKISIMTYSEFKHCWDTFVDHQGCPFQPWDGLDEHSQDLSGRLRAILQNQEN

## CCCCCCCCCCCCCCCC[n+]1ccn(CC(C)=O)c1
[1]
  IC50: 4.25 µM (active)
[2]
  IC50: 10.1 µM (active)
[3]
  AC50: 2.86 µM (active)
[4]
  IC50: 21.1 µM (not active)

## N#Cc1cccc(NC(=O)CSc2ccc3c4c(cccc24)C(=O)c2ccccc2-3)c1
[5]
  IC50: 4.87 µM (active)
[6]
  EC50: 15.3 µM (active)
[7]
  EC50: 19.6 µM (active)

## Cc1ccc(Sc2c(CO)c(-c3ccccc3)nn2C)cc1
H4
  EC50: > 120 µM (not active)
[8]
  EC50: > 120 µM (not active)
[9]
  EC50: 0.658 µM (inconclusive)
[10]
  EC50: > 3.8 µM (not active)
[11]
  EC50: 1.37 µM (inconclusive)

## O=C1CC(/C=C/c2ccco2)=Nc2ccccc2N1
Estrogen receptor
  IC50: > 50 µM (not active)

## CCN(CC)c1nc2ccccc2nc1C(C#N)C(=O)NCCc1ccccc1 (stereo unspecified)
[12]
  EC50: > 20 µM (not active)
[13]
  EC50: > 99 µM (inactive)
[14]
  EC50: > 99 µM (inactive)
[15]
  EC50: > 20 µM (not active)

## COC(=O)c1ccc(CSc2nc(C)nc3sc(C)c(C)c23)o1
Estrogen receptor
  IC50: 48.9 µM (not active)

## Cc1ccc(C(=O)NNC(=O)CSc2n[nH]c3c4cc(F)ccc4nc-3n2)cc1
Protein Rev
  IC50: > 79.4 µM (not active)
[16]
  IC50: 14.6 µM (active)
[17]
  IC50: 17.5 µM (active)
[18]
  IC50: 5.22 µM (active)
[19]
  IC50: 28.6 µM (active)
[5]
  IC50: 5.25 µM (active)

## CCCCN(CCCC)S(=O)(=O)c1ccc(NC(=O)c2ccc([N+](=O)[O-])cc2Cl)cc1
[20]
  EC50: 0.798 µM (active)
[21]
  IC50: 12.6 µM (active)
Vero
  CC50: 10.1 µM (active)
[4]
  IC50: 1.42 µM (not active)

## O=C(Nc1ccc(F)cc1F)c1c(C(F)(F)F)ccnc1Oc1ccc(Cl)cc1
[22]
  IC50: 4.29 µM (active)
[23]
  IC50: > 50 µM (not active)

## O=C1c2ccccc2C(=O)c2c1ccc1c(O)n(-c3ccccc3)nc21
H4
  EC50: 59.2 µM (inconclusive)
[24]
  EC50: < 0.1 µM (active)
[8]
  EC50: < 0.1 µM (active)
[9]
  EC50: 0.36 µM (active)
[10]
  EC50: 0.478 µM (active)
[11]
  EC50: 0.563 µM (active)

## COc1ccc(OC)c(N(CC(=O)N2CCCCC2)S(=O)(=O)c2ccc(OC)c(OC)c2)c1
Ion channel NompC
  EC50: 25.6 µM (not active)
Mucolipin-3
  EC50: 1.67 µM (active)

## COC(=O)c1c(N(S(C)(=O)=O)S(C)(=O)=O)sc2c1CCN(c1ncc(C(F)(F)F)cc1Cl)C2
[25]
  CC50: 16.9 µM (active)
[26]
  IC50: 29.2 µM (active)

## CCOC(=O)c1ccccc1NC(=O)c1c(F)c(F)c(F)c(F)c1F
[12]
  EC50: 15.7 µM (active)
[15]
  EC50: 13.6 µM (active)

## O=C(Nc1ccc(-c2nc3ccccc3[nH]2)cc1)c1ccccc1NS(=O)(=O)c1ccc(F)cc1
[1]
  IC50: > 50 µM (active)

## O=C(Nc1nc(-c2ccco2)c(-c2ccco2)s1)C1CCC1
NS3
  IC50: 30.4 µM (not active)

## O=C(N/N=C/c1ccc(-c2ccc([N+](=O)[O-])cc2)o1)[C@H]1C[C@@H]1c1ccccc1
[22]
  IC50: 3.03 µM (active)
[23]
  IC50: 1.96 µM (active)
